The source of these data is US5811278A, “Dipeptidyl peptidase IV from Xanthomonas maltophilia and process for producing the same” (Ajinomoto Co., Inc., priority 1995, dated 1998).

Where two headings read alike, the source gives them in different places. Where a SMILES comes first, the peptide text is derived from it. The star is where a group is joined. βNA = c1ccc2cc(N*)ccc2c1

Type in all cases: biochemical
Assay [1] concerns the target T1, dipeptidyl peptidase IV obtainable from Xanthomonas maltophilia (Stenotrophomonas maltophilia, UniProt P95782). The assay can be described thus: Substrate specificity for low molecular weight synthetic peptide substrates. The conditions noted are these: for activity at 500 µM: read-out: Relative activity (%). The protocol: In the present invention, the dipeptidyl peptidase IV activity was measured according to the method of Yoshimoto et al. (J. Biochem., 91:1899-1906 (1982)).
The used substrates are shown in Table 1, and the concentration thereof was 0.5 mM.
Using Gly-Pro-β-naphthylamide as the substrate, 0.1 ml of 5 mM Gly-Pro-β-naphthylamide and 0.1 ml of an enzyme solution were added to 0.8 ml of 20 mM Tris-HCl buffer (pH 8.0) containing 5 mM EDTA and allowed to react with each other at 37° C. for 5 minutes, the reaction was terminated by adding 0.5 ml of Fast Garnet GBC (0.1% solution prepared by dissolving it in 1M acetate buffer (pH 4.0) containing 10% Triton X-100) and then absorbance at 550 nm was measured.

Assay [2] deals with T1, dipeptidyl peptidase IV obtainable from Xanthomonas maltophilia. The assay can be described thus: biochemical.
Target sequence in this assay (P95782 21-741 limits assumed): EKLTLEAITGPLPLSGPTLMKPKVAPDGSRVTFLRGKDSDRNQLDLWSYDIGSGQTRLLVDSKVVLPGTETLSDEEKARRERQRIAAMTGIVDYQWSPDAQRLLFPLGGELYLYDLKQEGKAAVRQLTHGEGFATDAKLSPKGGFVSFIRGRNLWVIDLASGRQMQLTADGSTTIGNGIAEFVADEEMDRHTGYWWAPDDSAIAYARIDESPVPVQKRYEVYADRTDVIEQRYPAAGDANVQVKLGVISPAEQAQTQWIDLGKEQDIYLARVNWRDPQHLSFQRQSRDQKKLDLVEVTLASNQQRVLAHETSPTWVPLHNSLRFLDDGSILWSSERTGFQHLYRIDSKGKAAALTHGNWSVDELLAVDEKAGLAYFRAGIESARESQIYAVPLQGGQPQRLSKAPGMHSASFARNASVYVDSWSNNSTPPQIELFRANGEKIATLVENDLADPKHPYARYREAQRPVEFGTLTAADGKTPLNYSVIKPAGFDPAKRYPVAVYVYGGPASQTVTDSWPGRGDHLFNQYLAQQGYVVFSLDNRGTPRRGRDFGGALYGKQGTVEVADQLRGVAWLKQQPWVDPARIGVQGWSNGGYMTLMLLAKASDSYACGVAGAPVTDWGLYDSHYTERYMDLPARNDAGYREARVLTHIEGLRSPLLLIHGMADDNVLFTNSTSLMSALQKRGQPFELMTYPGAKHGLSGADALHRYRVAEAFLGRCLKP
The target is the same in assay [3]. The assay can be described thus: Influence of metal ions on the enzyme activity. The conditions noted are these: substrate Gly-Pro-β-naphthylamide; for Relative activity (%): metal ion 1 mM, control 100.
Target sequence in this assay (P95782 21-741 limits assumed): as above
The mark [4] stands for this setting: hydrolysis of the substrate by the enzyme, substrate concentration 0.5 mM.

With `C[C@H](N)C(=O)N[C@@H](C)C(=O)Nc1ccc2ccccc2c1` [Ala--Ala-β-naphthylamide] (H-Ala-Ala-βNA), in assay [1] (setting [4]), the activity at 500 µM worked out at 100%.
With `C[C@H](N)C(=O)N1CCC[C@H]1C(=O)Nc1ccc2ccccc2c1` [Ala--Pro-β-naphthy1amide] (H-Ala-Pro-βNA), the activity at 500 µM in assay [1] turned out to be 105%.
Consider `O=C(O)CN(CCN(CC(=O)O)CC(=O)O)CC(=O)O` [EDTA], for which the activity at 5000 µM in assay [2] (read-out: Relative activity (%)) came to 100%.
As to `NCC(=O)N1CCC[C@H]1C(=O)Nc1ccc2ccccc2c1` [Gly--Pro-β-naphthylamide, Gly-Pro-β-naphthylamide] (H-Gly-Pro-βNA), in assay [1] (setting [4]), the activity at 500 µM came out at 100%.
For `[Cl][Hg][Cl]` [HgCl2], the “Inhibition of the enzyme activity by metal ion (in words)” value in assay [3] (1 mM) was “inhibited by HgCl2 almost completely”. Moreover, in assay [3], the “Relative activity (%)” value came to 0%.
As for `[Cl][Ni][Cl]` [NiCl2], the “Relative activity (%)” value in assay [3] came to 100%.
With `O=C(O)c1cc[c]([Hg][Cl])cc1` [PCMB], in assay [2], the “Relative activity (%)” value turned out to be 96%.
On to `[Cl-].[Cl-].[Zn+2]` [ZnCl2], for which the “Relative activity (%)” value in assay [3] is reported as 95%.
Regarding Gly--Pro--Ala, in assay [1] (setting [4]), the “Relative activity (%)” value is listed as 40%.
For the compound “Gly--Pro--Leu--Gly (GPLG; printed: Gly--Pro--Leu--Gly)”, in assay [1] (setting [4]), the “Relative activity (%)” value is given as 50%.
